As usually defined, the GI50 is the concentration giving 50% growth inhibition.

The source of these data is US20240059698A1 (Accutar Biotechnology Inc., priority 2022, published 2024).

Like-named read-outs stand apart in the source and are kept apart here.

Type in all cases: cell-based
In experiment [1] the test system is HCC827 cells. In words: Cell growth inhibition (CellTiter-Glo), HCC827. To be noted: Homo sapiens, 72 h, 3 days. As to the method:
(§1) 2. Cell Growth Inhibition for HCC827, HCC827-SVD, HCC827-ASV, HCC827-YVMA, and A431.
(§2) HCC827(ATCC), HCC827-SVD, HCC827-ASV, and HCC827-YVMA cells were seeded in 96-well plates at 5000 cells/well in 90 μL of RPMI growth medium containing 10% FBS and 1% Penicillin Streptomycin. A431 (ATCC) cells were seeded in 96-well plates at 5000 cells/well in 90 μL of DMEM growth medium containing 10% FBS and 1% Penicillin Streptomycin. Cells were incubated at 37° C. overnight and then administered with 10 μL 10× test compounds prepared in the growth medium at various concentrations. After administration of the compounds, cells were incubated at 37° C. for 3 days. Before the CellTiter-Glo assay, the plates were equilibrated at room temperature for approximately 30 minutes. 100 ul of CellTiter-Glo reagent (Promega) was added to each well. The plates were then incubated at room temperature for 10 minutes and luminescence was recorded by the EnSight® multimode plate reader (PerkinElmer). Table 7 listed selected compounds in cellular growth assay.

Experiment [2] has as its system HCC827-SVD cells (human EGFR exon 20 insertion mutant D770_N771insSVD). In words: Cell growth inhibition (CellTiter-Glo), HCC827-SVD. To be noted: 72 h, 3 days. Put shortly:
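Growth read by CellTiter-Glo luminescence after 3-day compound exposure at 37 °C. Engineered clonal HCC827 line (native EGFR deleted by CRISPR, mutant EGFR re-expressed) plated at 5000 cells/well in 10% FBS RPMI the night before dosing.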
(In general: In ATP-based viability assays light output follows the ATP content of the culture.)

Experiment [3] relates to HCC827-YVMA cells (human ERBB2 exon20 insertion mutant A775_G776ins YVMA). Briefly: Cell growth inhibition (CellTiter-Glo), HCC827-YVMA. To be noted: 72 h, read-out: Cell growth inhibition, GI50 (nM) HCC827-YVMA. In outline:
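Growth in RPMI with 10% FBS was measured by CellTiter-Glo luminescence after 3 days at 37 °C with test compounds across a concentration range. The single-clone HCC827 lines carry a lentiviral YVMA (ERBB2) or ASV (EGFR) exon 20 insertion, with endogenous EGFR removed via sgRNA/Cas9.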

Experiment [4] deals with A431 cells. In words: Cell growth inhibition (CellTiter-Glo), A431. To be noted: Homo sapiens, A-431, 72 h, 3 days. On the procedure:
as §1, §2

Setting [5] is: HCC827-YVMA cells, 3 days, CellTiter-Glo.

Take `C=CC(=O)N1CCC(c2n[nH]c3ncnc(Nc4ccc(Oc5ccn(S(=O)(=O)C(C)C)n5)cc4F)c23)CC1` [Compound 183, 1-(4-(4-((2-fluoro-4-((1-(isopropylsulfonyl)-1H-pyrazol-3-yl)oxy)phenyl)amino)-1H-pyrazolo[3,4-d]pyrimidin-3-yl)piperidin-1-yl)prop-2-en-1-one]: the GI50 was 200 to 1000 nM in experiment [1], 200 to 1000 nM in experiment [2], 200 to 1000 nM in experiment [3] (setting [5]) and more than 1000 nM in experiment [4].
For `C=CC(=O)N1CCC(c2n[nH]c3ncnc(Nc4ccc(Oc5ccnc(-c6csc(C)n6)c5)cc4F)c23)CC1` [Compound 171, 1-(4-(4-((2-fluoro-4-((2-(2-methylthiazol-4-yl)pyridin-4-yl)oxy)phenyl)amino)-1H-pyrazolo[3,4-d]pyrimidin-3-yl)piperidin-1-yl)prop-2-en-1-one], the GI50 in experiment [1] was 200 to 1000 nM; in experiment [2], 50 to 200 nM; in experiment [3] it was less than 50 nM; in experiment [4] it was more than 1000 nM.
Consider `C=CC(=O)N1CCC(c2c[nH]c3ncnc(Nc4ccc(Oc5ccnc(N6CCC(C(F)(F)F)C6)c5)cc4F)c23)CC1` (stereo not shown) [Compound 140, 1-(4-(4-((2-fluoro-4-((2-(3-(trifluoromethyl)pyrrolidin-1-yl)pyridin-4-yl)oxy)phenyl)amino)-7H-pyrrolo[2,3-d]pyrimidin-5-yl)piperidin-1-yl)prop-2-en-1-one], for which the GI50 in experiment [1] is 200 to 1000 nM; in experiment [2], 50 to 200 nM; in experiment [3] (setting [5]), 50 to 200 nM; in experiment [4] it was more than 1000 nM.
`C=CC(=O)N1CCC(c2c[nH]c3ncnc(Nc4ccc(Oc5ccnc(N6CCC(F)(F)C6)c5)cc4F)c23)CC1` [Compound 145]: the GI50 in experiment [1] was more than 1000 nM; in experiment [2], 200 to 1000 nM; in experiment [3] (setting [5]) it was 200 to 1000 nM; in experiment [4], more than 1000 nM.
With `C=CC(=O)N1CCN(c2n[nH]c3ncnc(Nc4ccc(OCc5ccccn5)c(Cl)c4)c23)CC1` [Compound 163, 1-(4-(4-((3-chloro-4-(pyridin-2-ylmethoxy)phenyl)amino)-1H-pyrazolo[3,4-d]pyrimidin-3-yl)piperazin-1-yl)prop-2-en-1-one], the GI50 in experiment [1] is less than 50 nM; in experiment [2], less than 50 nM; in experiment [3] (setting [5]), less than 50 nM; in experiment [4] it was more than 1000 nM.
As for `C=CC(=O)N1CCC(Nc2n[nH]c3ncnc(Nc4ccc(OCc5ccccn5)c(Cl)c4)c23)CC1` [Compound 169, 1-(4-((4-((3-chloro-4-(pyridin-2-ylmethoxy)phenyl)amino)-1H-pyrazolo[3,4-d]pyrimidin-3-yl)amino)piperidin-1-yl)prop-2-en-1-one], the GI50 in experiment [1], in experiment [2], in experiment [3] (setting [5]) and in experiment [4] was more than 1000 nM throughout.
`C=CC(=O)N1CCC(c2c[nH]c3ncnc(Nc4ccc(Oc5ccnc(NC6CCOCC6)c5)cc4F)c23)CC1` [Compound 146, 1-(4-(4-((2-fluoro-4-((2-((tetrahydro-2H-pyran-4-yl)amino)pyridin-4-yl)oxy)phenyl)amino)-7H-pyrrolo[2,3-d]pyrimidin-5-yl)piperidin-1-yl)prop-2-en-1-one]: the GI50 in experiment [1] was more than 1000 nM; in experiment [2], 200 to 1000 nM; in experiment [3] (setting [5]) it was 200 to 1000 nM; in experiment [4], more than 1000 nM.
Take `C=CC(=O)N1CCC(c2n[nH]c3ncnc(Nc4ccc(Oc5ccnc(NC6CCOCC6)c5)cc4F)c23)CC1` [Compound 174, 1-(4-(4-((2-fluoro-4-((2-((tetrahydro-2H-pyran-4-yl)amino)pyridin-4-yl)oxy)phenyl)amino)-1H-pyrazolo[3,4-d]pyrimidin-3-yl)piperidin-1-yl)prop-2-en-1-one]: the GI50 in experiment [1] was more than 1000 nM; in experiment [2], 200 to 1000 nM; in experiment [3] (setting [5]) it was 200 to 1000 nM; in experiment [4], more than 1000 nM.
Turning to `C=CC(=O)N1CCC(c2n[nH]c3ncnc(Nc4ccc(Oc5nc(-c6ccnn6C)cs5)cc4F)c23)CC1` [Compound 191, 1-(4-(4-((2-fluoro-4-((4-(1-methyl-1H-pyrazol-5-yl)thiazol-2-yl)oxy)phenyl)amino)-1H-pyrazolo[3,4-d]pyrimidin-3-yl)piperidin-1-yl)prop-2-en-1-one], the GI50 is 200 to 1000 nM in experiment [1], 200 to 1000 nM in experiment [2], 200 to 1000 nM in experiment [3] (setting [5]) and more than 1000 nM in experiment [4].
Take `C=CC(=O)N1CCC(c2c[nH]c3ncnc(Nc4ccc(Oc5ccnc(N6CCOC(C)C6)c5)cc4F)c23)CC1` (stereo in doubt) [Compound 141, (S)-1-(4-(4-((2-fluoro-4-((2-(2-methylmorpholino)pyridin-4-yl)oxy)phenyl)amino)-7H-pyrrolo[2,3-d]pyrimidin-5-yl)piperidin-1-yl)prop-2-en-1-one]: the GI50 in experiment [1] was more than 1000 nM; in experiment [2], 50 to 200 nM; in experiment [3] (setting [5]) it was 50 to 200 nM; in experiment [4] it was more than 1000 nM.
Turning to `C=CC(=O)N1CCC(c2n[nH]c3ncnc(Nc4ccc(Oc5ccnc(C(=O)NC)c5)cc4F)c23)CC1` [Compound 184, 4-(4-((3-(1-acryloylpiperidin-4-yl)-1H-pyrazolo[3,4-d]pyrimidin-4-yl)amino)-3-fluorophenoxy)-N-methylpicolinamide], the GI50 was more than 1000 nM in experiment [1], more than 1000 nM in experiment [2], 200 to 1000 nM in experiment [3] (setting [5]) and more than 1000 nM in experiment [4].
Take `C=CC(=O)N1CCC(c2n[nH]c3ncnc(Nc4ccc(Oc5nc(-c6cnc(C)c(F)c6)cs5)cc4F)c23)CC1` [Compound 190, 1-[4-[4-[2-fluoro-4-[4-(5-fluoro-6-methyl-3-pyridyl)thiazol-2-yl]oxy-anilino]-1H-pyrazolo[3,4-d]pyrimidin-3-yl]-1-piperidyl]prop-2-en-1-one]: the GI50 in experiment [1] is 200 to 1000 nM; in experiment [2], 50 to 200 nM; in experiment [3] (setting [5]), 50 to 200 nM; in experiment [4] it was more than 1000 nM.
With `C=CC(=O)N1CCC(c2c[nH]c3ncnc(Nc4ccc(Cl)c(Cl)c4F)c23)CC1` [Compound 143, 1-(4-(4-((3,4-dichloro-2-fluorophenyl)amino)-7H-pyrrolo[2,3-d]pyrimidin-5-yl)piperidin-1-yl)prop-2-en-1-one], the GI50 is less than 50 nM in experiment [1], less than 50 nM in experiment [2], less than 50 nM in experiment [3] (setting [5]) and more than 1000 nM in experiment [4].
`C=CC(=O)N1CCC(c2c[nH]c3ncnc(Nc4ccc(Oc5ccnc(-n6ccc(C(C)C)n6)c5)cc4F)c23)CC1` [Compound 133, 1-(4-(4-((2-fluoro-4-((2-(3-isopropyl-1H-pyrazol-1-yl)pyridin-4-yl)oxy)phenyl)amino)-7H-pyrrolo[2,3-d]pyrimidin-5-yl)piperidin-1-yl)prop-2-en-1-one]: the GI50 in experiment [1] is more than 1000 nM; in experiment [2], 50 to 200 nM; in experiment [3] (setting [5]) it was 50 to 200 nM.
For `C=CC(=O)N1CCC(c2c[nH]c3ncnc(Nc4ccc(OCc5cc(C#N)ccn5)c(Cl)c4)c23)CC1` [Compound 100, 2-((4-((5-(1-acryloylpiperidin-4-yl)-7H-pyrrolo[2,3-d]pyrimidin-4-yl)amino)-2-chlorophenoxy)methyl)isonicotinonitrile], the GI50 in experiment [1], in experiment [2] and in experiment [3] (setting [5]) was less than 50 nM throughout.
For the molecule `C=CC(=O)N1CCC(c2c[nH]c3ncnc(Nc4ccc(OCc5ncco5)c(Cl)c4)c23)CC1` [Compound 95, 1-(4-(4-((3-chloro-4-(oxazol-2-ylmethoxy)phenyl)amino)-7H-pyrrolo[2,3-d]pyrimidin-5-yl)piperidin-1-yl)prop-2-en-1-one], the GI50 in experiment [1], in experiment [2] and in experiment [3] (setting [5]) was less than 50 nM in each case.
